One assay addresses T1, Coagulation factor XII (Homo sapiens, UniProt P00748).
T1 sequence (P00748 whole entry): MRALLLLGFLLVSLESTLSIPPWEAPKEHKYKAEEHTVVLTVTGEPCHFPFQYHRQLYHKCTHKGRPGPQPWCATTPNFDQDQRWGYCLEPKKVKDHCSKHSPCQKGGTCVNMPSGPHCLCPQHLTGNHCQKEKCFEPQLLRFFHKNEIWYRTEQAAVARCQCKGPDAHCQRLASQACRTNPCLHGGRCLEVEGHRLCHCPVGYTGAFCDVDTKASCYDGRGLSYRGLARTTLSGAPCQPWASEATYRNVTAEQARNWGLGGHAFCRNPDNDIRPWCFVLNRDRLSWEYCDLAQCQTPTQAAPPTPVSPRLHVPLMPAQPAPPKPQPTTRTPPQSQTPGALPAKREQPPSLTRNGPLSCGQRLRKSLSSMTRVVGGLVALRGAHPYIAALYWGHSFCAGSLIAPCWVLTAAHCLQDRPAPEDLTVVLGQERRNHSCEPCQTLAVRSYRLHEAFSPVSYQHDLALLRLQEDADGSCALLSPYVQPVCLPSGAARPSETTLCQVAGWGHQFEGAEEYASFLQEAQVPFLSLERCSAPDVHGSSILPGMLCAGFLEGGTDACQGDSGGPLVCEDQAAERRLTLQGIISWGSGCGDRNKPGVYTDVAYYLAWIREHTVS
Briefly: Factor XIIa Dose Response Confirmation from Single Well HTS. [Related pubchem assays (depositor defined):AID701]. The assay is classed as functional.

A further assay relates to H9c2. Briefly: cells. The assay is classed as functional, cell-based. Particulars: Rattus norvegicus, H9c2, Myocardium.
The target in another assay is Ion channel NompC (Danio rerio, UniProt Q7T1G6). Description: Dose response cell-based high-throughput screening assay for agonists of the transient receptor potential channel N1 (TRPN1). [Related pubchem assays (depositor defined):AID1424, AID1448]. It is filed as functional.
In a further assay the target is Mucolipin-3 (Homo sapiens, UniProt Q8TDD5). Description: Fluorescence counterscreen assay for […] agonists: dose response cell-based high-throughput screening assay to identify agonists of the transient receptor potential channel ML3 (TRPML3). [Related pubchem assays: 1424, 1448 ]. It is filed as functional. On the technique in general: Counterscreens check selectivity or assay interference.

The target of assay [1] is T2, Corticotropin-releasing factor receptor 2/Corticotropin-releasing factor-binding protein (Homo sapiens, UniProt P24387+Q13324).
T2 sequence (Q13324 whole entry): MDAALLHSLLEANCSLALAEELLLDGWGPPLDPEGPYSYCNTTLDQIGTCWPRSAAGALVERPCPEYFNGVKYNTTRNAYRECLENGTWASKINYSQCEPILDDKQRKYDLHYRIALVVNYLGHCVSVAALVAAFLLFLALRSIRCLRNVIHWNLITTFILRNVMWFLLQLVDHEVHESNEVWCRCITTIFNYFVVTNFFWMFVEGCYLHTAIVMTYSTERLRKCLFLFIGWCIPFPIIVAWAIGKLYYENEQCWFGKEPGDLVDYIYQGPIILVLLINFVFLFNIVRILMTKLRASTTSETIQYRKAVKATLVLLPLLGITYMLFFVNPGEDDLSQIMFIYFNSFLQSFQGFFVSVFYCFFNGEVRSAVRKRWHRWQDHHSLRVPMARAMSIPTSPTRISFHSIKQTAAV
T2 sequence (P24387 whole entry): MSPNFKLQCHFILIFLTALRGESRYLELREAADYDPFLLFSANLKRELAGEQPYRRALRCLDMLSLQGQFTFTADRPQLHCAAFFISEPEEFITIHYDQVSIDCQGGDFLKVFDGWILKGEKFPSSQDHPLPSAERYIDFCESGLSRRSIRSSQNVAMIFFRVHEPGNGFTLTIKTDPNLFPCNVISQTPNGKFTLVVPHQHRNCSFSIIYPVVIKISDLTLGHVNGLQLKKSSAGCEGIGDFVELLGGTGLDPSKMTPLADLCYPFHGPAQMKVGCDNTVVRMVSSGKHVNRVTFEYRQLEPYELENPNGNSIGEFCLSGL
Briefly: activators of CRF receptor 2 with binding protein – uHTS hits, confirmation (AID 602473). The assay is classed as functional. Particulars: read-out: EC50_Mean.

For assay [2], the target named is T3, Replicative DNA helicase DnaB (Mycobacterium tuberculosis, UniProt P9WMR3).
T3 sequence (P9WMR3 whole entry): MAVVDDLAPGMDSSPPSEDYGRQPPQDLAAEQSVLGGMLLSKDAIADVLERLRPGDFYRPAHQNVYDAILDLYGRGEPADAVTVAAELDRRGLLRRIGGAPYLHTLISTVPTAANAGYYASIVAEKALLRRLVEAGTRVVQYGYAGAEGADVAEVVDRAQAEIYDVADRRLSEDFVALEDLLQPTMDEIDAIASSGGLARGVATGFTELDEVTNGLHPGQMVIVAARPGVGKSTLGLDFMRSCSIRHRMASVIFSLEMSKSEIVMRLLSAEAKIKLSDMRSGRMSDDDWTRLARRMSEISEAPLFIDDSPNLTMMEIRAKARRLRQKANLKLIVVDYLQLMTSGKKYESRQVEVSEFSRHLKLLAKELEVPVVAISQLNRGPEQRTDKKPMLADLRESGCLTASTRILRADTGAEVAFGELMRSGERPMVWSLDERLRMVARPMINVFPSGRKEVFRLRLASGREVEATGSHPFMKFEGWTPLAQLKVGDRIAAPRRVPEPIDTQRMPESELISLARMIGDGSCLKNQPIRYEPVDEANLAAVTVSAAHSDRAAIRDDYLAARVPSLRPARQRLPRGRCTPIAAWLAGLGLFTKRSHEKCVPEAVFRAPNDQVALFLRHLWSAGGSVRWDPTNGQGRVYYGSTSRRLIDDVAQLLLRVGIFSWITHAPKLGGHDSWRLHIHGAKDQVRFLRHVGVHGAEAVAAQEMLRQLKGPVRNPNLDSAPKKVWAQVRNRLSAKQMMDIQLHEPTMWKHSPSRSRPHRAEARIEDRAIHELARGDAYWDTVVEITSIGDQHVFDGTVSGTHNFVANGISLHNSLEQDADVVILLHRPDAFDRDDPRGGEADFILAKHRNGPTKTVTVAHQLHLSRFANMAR
Description: DnaB intein splicing inhibitors, dose response, biochemical, cell-free fluorescence (AID 449749). The assay is classed as functional.

A further assay concerns the target T4, Protein RecA (Mycobacterium tuberculosis, UniProt P9WHJ3).
T4 sequence (P9WHJ3 whole entry): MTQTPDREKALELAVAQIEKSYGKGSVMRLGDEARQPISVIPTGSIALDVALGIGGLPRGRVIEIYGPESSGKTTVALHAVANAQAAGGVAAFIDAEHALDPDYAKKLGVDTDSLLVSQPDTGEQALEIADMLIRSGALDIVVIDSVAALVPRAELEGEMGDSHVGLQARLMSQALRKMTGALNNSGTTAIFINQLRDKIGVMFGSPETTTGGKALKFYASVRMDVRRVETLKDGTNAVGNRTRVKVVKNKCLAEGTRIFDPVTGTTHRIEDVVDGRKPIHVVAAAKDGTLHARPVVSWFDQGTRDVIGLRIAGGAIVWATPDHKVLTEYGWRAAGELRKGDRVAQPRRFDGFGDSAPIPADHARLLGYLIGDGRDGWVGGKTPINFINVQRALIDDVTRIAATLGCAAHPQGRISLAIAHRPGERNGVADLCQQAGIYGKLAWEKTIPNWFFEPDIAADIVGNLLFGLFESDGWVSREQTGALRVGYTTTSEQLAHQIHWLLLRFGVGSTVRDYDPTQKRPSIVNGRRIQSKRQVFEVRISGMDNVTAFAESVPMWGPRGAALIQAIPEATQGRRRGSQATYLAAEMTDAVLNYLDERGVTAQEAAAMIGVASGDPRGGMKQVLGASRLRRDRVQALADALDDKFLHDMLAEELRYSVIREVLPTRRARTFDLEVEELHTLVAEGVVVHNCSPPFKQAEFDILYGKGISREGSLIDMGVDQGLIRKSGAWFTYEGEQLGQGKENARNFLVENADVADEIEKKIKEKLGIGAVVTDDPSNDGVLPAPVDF
Briefly: Fluorescence Cell-Free Homogeneous Dose Retest to Identify Inhibitors of RecA-Intein Splicing Activity. [Related pubchem assays (depositor defined):AID2097, AID2223, AID489010, AID492950]. The assay is classed as functional.

Assay [3] is described as follows: Intein inhibitors as potential Tuberculosis drugs, a cytotoxicity screen. [Related pubchem assays (depositor defined):AID2221, AID2223, AID434968, AID435010, AID449749, AID449750, AID489010]. The assay is classed as functional.
For assay [4], the target named is T5, Runt-related transcription factor 1/Core-binding factor subunit beta (Homo sapiens, UniProt Q01196+Q13951). Briefly: Runt domain/CBFb-SMMHC interaction disruptors – biochemical, TR-FRET (AID 1438). The assay is classed as protein assay.
Assay [5] addresses T5, Runt-related transcription factor 1/Core-binding factor subunit beta. Description: disruptors of Runt domain/CBFb-SMMHC interaction – biochemical, FRET, Cerulean-Runt, Venus-CBFb-SMMHC, uHTS, […] (AID 1434). The assay is classed as protein assay.
Assay [6] deals with T6, Kappa-type opioid receptor (Homo sapiens, UniProt P41145). Description: SAR analysis of small molecule antagonists of the kappa opioid receptor via a luminescent beta-arrestin assay - Set 4. [Related pubchem assays (depositor defined):AID1777, AID1778, AID1785, AID1786, AID1966, AID2133, AID2136, AID2285]. The assay is classed as functional.
For assay [7], the target named is T6, Kappa-type opioid receptor. Description: SAR analysis of small molecule antagonists of the kappa opioid receptor via a luminescent beta-arrestin assay - Set 5. [Related pubchem assays (depositor defined):AID1778, AID1785]. It is filed as functional.
Another assay addresses Tumor necrosis factor (Homo sapiens, UniProt P01375). Briefly: analog potency on TNFa NF-kB signaling – cell-based, set 3, SAR follow-up (AID 2801). It is filed as functional.
The subject of the next assay is HEK293. Description: SAR analysis of compounds that are cytotoxic to HEK293 - Set 3. [Related pubchem assays (depositor defined):AID1575, AID1578, AID1848, AID1849, AID2001, AID2333, AID2334, AID2335, AID2337, AID2469]. Particulars: Homo sapiens. The assay is classed as functional, cell-based.
Assay [8] has as its target Nucleotide-binding oligomerization domain-containing protein 1 (Homo sapiens, UniProt Q9Y239). Briefly: SAR analysis of compounds that inhibit NOD1 - Set 3. [Related pubchem assays (depositor defined):AID1566, AID1575, AID1578, AID1849, AID1852, AID2333, AID2335, AID2466]. It is filed as functional.
Assay [9] deals with Nucleotide-binding oligomerization domain-containing protein 2 (Homo sapiens, UniProt Q9HC29). Briefly: inhibition of MDP-driven NOD2 NF-kB reporter – cell-based, set 3, SAR follow-up (AID 2799). The assay is classed as functional.
Assay [10] has as its target Signal transducer and activator of transcription 3 (Homo sapiens, UniProt P40763). Description: STAT3 blockade with qPCR and toxicity readouts – cell-based, STAT1 panel, cytotoxicity, late-stage follow-up, panel member STAT3 Inhibition (AID 2078).
Assay [11] has as its target Signal transducer and activator of transcription 1-alpha/beta (Homo sapiens, UniProt P42224). Description: STAT3 blockade with qPCR and toxicity readouts – cell-based, STAT1 panel, cytotoxicity, late-stage follow-up, panel member STAT1 Inhibition (AID 2078). For orientation: Quantitative PCR measures a nucleic acid by following its amplification.

Activity calls are given as the source filed them.
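For CC50 in this document: cells exposed to compound for 72 hours before luminescence readout.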

T6 sequence (P41145 whole entry): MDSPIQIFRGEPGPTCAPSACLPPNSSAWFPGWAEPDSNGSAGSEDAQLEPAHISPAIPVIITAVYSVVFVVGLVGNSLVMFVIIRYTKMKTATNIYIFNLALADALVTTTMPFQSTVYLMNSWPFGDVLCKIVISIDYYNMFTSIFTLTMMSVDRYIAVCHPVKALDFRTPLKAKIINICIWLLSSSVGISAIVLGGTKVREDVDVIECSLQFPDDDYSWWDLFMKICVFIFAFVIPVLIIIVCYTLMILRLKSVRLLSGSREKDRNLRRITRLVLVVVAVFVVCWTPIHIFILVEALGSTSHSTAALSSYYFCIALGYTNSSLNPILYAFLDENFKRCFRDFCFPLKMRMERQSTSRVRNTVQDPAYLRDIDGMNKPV
T5 sequence (Q01196 whole entry, the tested form may be a part): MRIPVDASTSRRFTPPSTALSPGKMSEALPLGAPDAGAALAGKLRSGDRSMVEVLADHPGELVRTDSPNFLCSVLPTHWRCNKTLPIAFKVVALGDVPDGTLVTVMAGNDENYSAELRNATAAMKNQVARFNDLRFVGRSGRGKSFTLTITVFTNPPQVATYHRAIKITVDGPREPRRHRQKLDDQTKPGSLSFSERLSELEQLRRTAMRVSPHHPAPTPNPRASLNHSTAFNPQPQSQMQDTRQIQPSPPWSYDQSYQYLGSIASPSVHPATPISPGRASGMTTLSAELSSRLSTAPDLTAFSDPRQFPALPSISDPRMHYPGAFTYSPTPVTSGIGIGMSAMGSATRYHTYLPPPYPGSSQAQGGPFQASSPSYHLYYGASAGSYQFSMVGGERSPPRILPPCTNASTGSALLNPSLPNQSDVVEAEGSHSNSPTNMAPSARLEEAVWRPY
T5 sequence (Q13951 whole entry, the tested form may be a part): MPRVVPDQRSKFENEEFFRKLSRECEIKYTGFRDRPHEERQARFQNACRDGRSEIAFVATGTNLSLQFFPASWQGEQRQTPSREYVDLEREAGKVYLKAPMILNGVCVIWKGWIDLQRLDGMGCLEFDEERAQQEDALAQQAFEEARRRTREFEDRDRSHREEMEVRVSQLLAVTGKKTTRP
Ion channel NompC, sequence (Q7T1G6 whole entry): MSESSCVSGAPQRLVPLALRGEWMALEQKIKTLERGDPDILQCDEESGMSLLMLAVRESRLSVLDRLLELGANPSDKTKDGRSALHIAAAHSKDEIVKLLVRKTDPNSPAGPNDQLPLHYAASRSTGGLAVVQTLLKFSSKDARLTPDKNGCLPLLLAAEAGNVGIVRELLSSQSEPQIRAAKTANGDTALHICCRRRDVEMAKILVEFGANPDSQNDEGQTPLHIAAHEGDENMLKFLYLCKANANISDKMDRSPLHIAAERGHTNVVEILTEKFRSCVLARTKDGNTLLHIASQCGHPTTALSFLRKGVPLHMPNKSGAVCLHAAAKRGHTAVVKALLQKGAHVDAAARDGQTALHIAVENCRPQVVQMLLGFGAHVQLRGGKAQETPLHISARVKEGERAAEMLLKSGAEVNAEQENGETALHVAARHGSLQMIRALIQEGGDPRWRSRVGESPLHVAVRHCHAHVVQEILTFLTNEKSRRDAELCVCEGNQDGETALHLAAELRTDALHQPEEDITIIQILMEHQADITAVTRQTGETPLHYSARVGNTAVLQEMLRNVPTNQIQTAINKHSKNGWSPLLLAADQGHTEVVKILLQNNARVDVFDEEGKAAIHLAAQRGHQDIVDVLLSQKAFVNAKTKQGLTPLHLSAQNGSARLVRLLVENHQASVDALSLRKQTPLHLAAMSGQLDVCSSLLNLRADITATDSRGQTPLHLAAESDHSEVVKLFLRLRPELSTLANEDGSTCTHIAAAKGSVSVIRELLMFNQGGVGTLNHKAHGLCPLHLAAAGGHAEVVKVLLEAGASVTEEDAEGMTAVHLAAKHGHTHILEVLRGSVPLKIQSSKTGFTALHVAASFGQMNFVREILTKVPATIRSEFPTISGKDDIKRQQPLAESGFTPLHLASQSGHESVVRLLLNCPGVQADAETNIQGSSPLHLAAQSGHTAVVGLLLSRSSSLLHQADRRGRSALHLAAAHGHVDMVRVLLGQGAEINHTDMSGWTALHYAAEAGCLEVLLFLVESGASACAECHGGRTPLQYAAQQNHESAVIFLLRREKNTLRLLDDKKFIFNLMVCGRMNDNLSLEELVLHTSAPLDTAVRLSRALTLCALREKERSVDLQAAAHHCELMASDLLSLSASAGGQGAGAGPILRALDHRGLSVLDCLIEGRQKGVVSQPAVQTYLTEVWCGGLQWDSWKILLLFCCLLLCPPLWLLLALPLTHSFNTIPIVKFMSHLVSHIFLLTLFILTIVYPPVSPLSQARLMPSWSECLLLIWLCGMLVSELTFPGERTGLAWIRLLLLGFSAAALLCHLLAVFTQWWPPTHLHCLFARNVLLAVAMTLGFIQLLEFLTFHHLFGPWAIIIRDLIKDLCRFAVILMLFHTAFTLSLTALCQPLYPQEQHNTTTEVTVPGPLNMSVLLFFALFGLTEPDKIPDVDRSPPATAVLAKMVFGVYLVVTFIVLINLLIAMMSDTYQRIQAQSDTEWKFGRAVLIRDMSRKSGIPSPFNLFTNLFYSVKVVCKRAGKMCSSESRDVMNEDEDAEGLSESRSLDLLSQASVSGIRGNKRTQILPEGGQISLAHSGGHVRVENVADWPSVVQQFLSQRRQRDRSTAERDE
Nucleotide-binding oligomerization domain-containing protein 2, sequence (Q9HC29 whole entry, the tested form may be a part): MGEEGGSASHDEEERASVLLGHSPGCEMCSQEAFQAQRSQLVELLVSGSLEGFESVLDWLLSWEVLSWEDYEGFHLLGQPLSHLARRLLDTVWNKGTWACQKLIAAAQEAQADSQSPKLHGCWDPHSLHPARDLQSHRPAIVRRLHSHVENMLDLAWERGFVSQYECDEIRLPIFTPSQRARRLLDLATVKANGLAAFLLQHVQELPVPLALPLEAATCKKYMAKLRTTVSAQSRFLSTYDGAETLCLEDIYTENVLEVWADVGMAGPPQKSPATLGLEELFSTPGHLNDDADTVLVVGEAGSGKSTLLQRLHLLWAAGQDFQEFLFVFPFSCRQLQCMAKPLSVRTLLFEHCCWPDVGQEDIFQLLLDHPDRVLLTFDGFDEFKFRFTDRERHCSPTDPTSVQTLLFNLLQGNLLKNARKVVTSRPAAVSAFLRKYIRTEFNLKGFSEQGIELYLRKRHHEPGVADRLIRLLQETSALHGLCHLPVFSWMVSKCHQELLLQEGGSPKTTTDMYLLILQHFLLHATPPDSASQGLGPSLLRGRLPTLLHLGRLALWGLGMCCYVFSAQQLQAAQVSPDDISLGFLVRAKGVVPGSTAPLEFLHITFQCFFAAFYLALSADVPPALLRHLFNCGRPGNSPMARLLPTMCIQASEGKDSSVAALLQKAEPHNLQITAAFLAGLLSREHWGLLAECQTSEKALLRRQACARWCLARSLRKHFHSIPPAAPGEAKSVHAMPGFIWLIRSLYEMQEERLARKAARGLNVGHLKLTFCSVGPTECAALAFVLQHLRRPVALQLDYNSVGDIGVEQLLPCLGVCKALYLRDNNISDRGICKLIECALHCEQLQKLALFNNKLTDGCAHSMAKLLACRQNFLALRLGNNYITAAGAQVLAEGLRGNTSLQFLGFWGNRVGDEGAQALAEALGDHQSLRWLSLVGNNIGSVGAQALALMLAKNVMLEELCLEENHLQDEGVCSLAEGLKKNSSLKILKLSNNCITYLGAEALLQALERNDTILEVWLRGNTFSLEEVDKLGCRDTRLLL
Signal transducer and activator of transcription 3, sequence (P40763 whole entry): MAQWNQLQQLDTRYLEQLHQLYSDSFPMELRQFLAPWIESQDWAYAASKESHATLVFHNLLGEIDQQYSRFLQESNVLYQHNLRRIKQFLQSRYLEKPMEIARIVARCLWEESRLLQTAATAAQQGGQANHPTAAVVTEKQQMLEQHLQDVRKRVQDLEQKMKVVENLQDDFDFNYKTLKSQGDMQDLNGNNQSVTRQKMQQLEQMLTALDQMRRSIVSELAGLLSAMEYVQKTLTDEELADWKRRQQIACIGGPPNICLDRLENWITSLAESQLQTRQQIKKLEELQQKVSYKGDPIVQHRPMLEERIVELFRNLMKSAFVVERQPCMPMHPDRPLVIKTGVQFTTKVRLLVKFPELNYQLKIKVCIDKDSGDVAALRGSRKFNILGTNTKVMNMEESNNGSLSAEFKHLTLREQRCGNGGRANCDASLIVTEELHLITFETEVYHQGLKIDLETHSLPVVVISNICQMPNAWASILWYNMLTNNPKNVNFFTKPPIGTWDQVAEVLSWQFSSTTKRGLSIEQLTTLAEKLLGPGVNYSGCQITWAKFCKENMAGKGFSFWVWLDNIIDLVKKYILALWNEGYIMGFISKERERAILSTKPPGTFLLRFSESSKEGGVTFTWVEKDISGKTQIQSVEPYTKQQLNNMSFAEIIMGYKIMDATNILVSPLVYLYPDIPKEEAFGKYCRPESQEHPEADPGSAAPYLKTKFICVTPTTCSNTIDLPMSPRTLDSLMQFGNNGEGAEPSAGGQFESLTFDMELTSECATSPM
Tumor necrosis factor, sequence (P01375 whole entry): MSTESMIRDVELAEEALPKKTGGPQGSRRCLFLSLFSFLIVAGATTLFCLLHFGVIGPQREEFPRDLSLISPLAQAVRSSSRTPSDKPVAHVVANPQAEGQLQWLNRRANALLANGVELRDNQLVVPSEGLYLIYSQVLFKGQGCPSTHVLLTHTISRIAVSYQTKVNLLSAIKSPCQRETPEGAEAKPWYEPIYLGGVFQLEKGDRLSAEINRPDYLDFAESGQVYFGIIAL

As a reminder, the IC50 is the midpoint of a concentration-inhibition curve. For `CC(=O)Oc1ccc2c(C)cc(=O)oc2c1`, the IC50 at Coagulation factor XII was > 50 µM (inconclusive); with H9c2, 16.5 µM (active).
For the compound `COc1cccc(CN2CCN(Cc3cc4ccccc4[nH]3)CC2CCO)c1` (stereo not drawn), the EC50 on Ion channel NompC is 5.32 µM (active); on Mucolipin-3, 5.42 µM (active); in assay [1], 15.1 µM (active).
For orientation: AC50 means the midpoint of the concentration-response curve, whichever way the signal moves. The CC50 is the concentration giving 50% cytotoxicity. Regarding `N#CC1=C(N)Oc2[nH]nc(-c3ccccc3)c2C1c1cccc(OC(=O)N2CCOCC2)c1` (stereo not drawn), the AC50 in assay [2] was 4.72 µM (active). On Protein RecA, the EC50 is 1.19 µM (active). Further, the CC50 in assay [3] was 31.4 µM (active).
For the compound `Cc1cc(O)ccc1Nc1nc2ccccc2nc1Nc1ccc(O)cc1C`, the IC50 in assay [4] is 7.08 µM (active); in [5] it was 9.73 µM (active).
Consider `CC(C)N(CCNC(=O)c1ccc(CNS(=O)(=O)c2ccc(C#N)cc2)cc1)Cc1ccccc1`, for which the IC50 is 3.54 µM (active) in [6] and 1.36 µM (active) in [7].
Consider `CC(C)c1ccc(S(=O)(=O)n2c(N)nc3ccccc32)cc1`, for which the IC50 was > 20 µM (inactive) on Tumor necrosis factor, > 20 µM (inactive) in the assay with HEK293, 0.495 µM (active) in assay [8] and > 20 µM (inactive) in assay [9].
For the compound `c1ccc(CC2CCN(c3ncnc4sc(-c5ccccc5)cc34)CC2)cc1`, the IC50 in assay [10] and in assay [11] was > 55.7 µM (inactive) each time.

Source of the values: ChEMBL document CHEMBL1201862, “PubChem BioAssay data set” (2004).
